Assay results: ChEMBL document CHEMBL4145512, “Design, synthesis and biological evaluation of new coumarin-dithiocarbamate hybrids as multifunctional agents for the treatment of Alzheimer's disease” (Eur J Med Chem, 2018)
The source made the active and inactive calls. The calls are words filed in the database; no cut-off is given here.

What was measured:
Acetylcholinesterase [1] = biological target: T1, Acetylcholinesterase (Homo sapiens, UniProt P22303); experiment: Inhibition of human erythrocyte AChE using acetylthiocholine iodide as substrate preincubated for 6 mins followed by substrate addition measured up to 180 secs by Ellman's method
T1 sequence (P22303 whole entry): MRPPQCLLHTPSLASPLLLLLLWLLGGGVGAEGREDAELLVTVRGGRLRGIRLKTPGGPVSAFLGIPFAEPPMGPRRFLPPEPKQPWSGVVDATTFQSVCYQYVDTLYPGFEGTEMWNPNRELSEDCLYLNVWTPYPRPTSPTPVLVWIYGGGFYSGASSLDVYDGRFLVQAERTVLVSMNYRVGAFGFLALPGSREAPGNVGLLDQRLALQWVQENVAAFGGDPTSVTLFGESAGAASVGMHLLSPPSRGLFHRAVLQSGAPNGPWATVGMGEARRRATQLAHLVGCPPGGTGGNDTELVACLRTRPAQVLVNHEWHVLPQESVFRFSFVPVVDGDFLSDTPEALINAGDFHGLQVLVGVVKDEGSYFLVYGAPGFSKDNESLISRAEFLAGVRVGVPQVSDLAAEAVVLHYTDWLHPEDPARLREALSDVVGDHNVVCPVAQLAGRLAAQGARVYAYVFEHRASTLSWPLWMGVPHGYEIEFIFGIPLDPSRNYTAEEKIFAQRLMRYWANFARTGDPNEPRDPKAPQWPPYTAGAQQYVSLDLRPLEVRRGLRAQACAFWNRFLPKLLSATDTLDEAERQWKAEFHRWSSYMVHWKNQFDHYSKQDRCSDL

[2] = biological target: BuChE (butyrylcholinesterase) (Homo sapiens, UniProt P06276); experiment: Inhibition of human serum BuChE at 10 uM using S-butyrylthiocholine iodide as substrate preincubated for 6 mins followed by substrate addition measured up to 180 secs by Ellman's method relative to control; details: probe S-butyrylthiocholine iodide
Chain of BuChE (butyrylcholinesterase) (P06276 whole entry): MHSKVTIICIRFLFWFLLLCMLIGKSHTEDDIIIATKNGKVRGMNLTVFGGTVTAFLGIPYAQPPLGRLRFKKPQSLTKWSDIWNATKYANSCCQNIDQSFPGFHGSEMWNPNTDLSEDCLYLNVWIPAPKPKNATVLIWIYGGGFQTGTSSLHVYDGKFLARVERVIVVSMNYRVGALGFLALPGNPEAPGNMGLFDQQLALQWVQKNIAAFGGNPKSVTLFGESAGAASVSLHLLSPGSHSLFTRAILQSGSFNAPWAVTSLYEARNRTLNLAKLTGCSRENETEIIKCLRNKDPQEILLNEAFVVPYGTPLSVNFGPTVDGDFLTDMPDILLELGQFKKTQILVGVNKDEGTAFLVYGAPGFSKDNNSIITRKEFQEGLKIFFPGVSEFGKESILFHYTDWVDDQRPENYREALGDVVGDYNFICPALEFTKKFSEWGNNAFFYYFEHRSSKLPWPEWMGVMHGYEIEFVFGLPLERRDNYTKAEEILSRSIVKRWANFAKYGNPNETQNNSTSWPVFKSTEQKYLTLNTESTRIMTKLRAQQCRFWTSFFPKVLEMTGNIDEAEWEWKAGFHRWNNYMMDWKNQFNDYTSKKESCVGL

Acetylcholinesterase [3] = biological target: T1, Acetylcholinesterase; experiment: Inhibition of human erythrocyte AChE at 10 uM using acetylthiocholine iodide as substrate preincubated for 6 mins followed by substrate addition measured up to 180 secs by Ellman's method relative to control
Acetylcholinesterase [4] = biological target: T1, Acetylcholinesterase; experiment: Potency index, ratio of donepenzil IC50 to compound IC50 for human erythrocyte AChE
Acetylcholinesterase [5] = biological target: T1, Acetylcholinesterase; experiment: […] inhibition of human erythrocyte AChE using acetylthiocholine iodide as substrate preincubated for 6 mins followed by substrate addition measured up to 180 secs by Lineweaver-Burk plot analysis
[6] = Metal chelating activity assessed as compound-Fe3+ complex formation at 25 uM by UV-Vis spectrophotometry
[7] = Metal chelating activity assessed as association constant for compound-Fe3+ complex formation by Job's plot analysis
[8] = Cytotoxicity against human SH-SY5Y cells assessed as cell viability at 12.5 uM after 24 hrs by MTT assay relative to control; assay type: cell-based; details: read-out: Activity
[9] = Cytotoxicity against human SH-SY5Y cells assessed as cell viability at 25 uM after 24 hrs by MTT assay relative to control; assay type: cell-based; details: read-out: Activity
[10] = Cytotoxicity against human SH-SY5Y cells assessed as cell viability at 50 uM after 24 hrs by MTT assay relative to control; assay type: cell-based; details: read-out: Activity
[11] = Cytotoxicity against human SH-SY5Y cells assessed as cell viability at 100 uM after 24 hrs by MTT assay relative to control; assay type: cell-based; details: read-out: Activity
Mus musculus [12] = experiment: Toxicity in Kunming mouse assessed as change in water consumption at 1000 mg/kg, po observed continuously for the first 4 hrs and intermittently for next 24 hrs and occasionally thereafter for 14 days; assay type: organism-based; details: in vivo
Mus musculus [13] = experiment: Toxicity in Kunming mouse assessed as change in food consumption at 1000 mg/kg, po observed continuously for the first 4 hrs and intermittently for next 24 hrs and occasionally thereafter for 14 days; assay type: organism-based; details: in vivo
Mus musculus [14] = experiment: Toxicity in Kunming mouse assessed as reduction in body weight at 1000 mg/kg, po observed continuously for the first 4 hrs and intermittently for next 24 hrs and occasionally thereafter for 14 days; assay type: organism-based; details: in vivo
Mus musculus [15] = experiment: Toxicity in Kunming mouse assessed as death at 1000 mg/kg, po observed continuously for the first 4 hrs and intermittently for next 24 hrs and occasionally thereafter for 14 days; assay type: organism-based; details: in vivo
Mus musculus [16] = experiment: Cardiotoxicity in Kunming mouse at 1000 mg/kg, po measured at day 14 by microscopic analysis; assay type: toxicity, organism-based; details: in vivo
Mus musculus [17] = experiment: Hepatotoxicity in Kunming mouse at 1000 mg/kg, po measured at day 14 by microscopic analysis; assay type: toxicity, organism-based; details: in vivo
Mus musculus [18] = experiment: Nephrotoxicity in Kunming mouse at 1000 mg/kg, po measured at day 14 by microscopic analysis; assay type: toxicity, organism-based; details: in vivo
Mus musculus [19] = experiment: Antialzheimer activity in scopolamine induced po dosed Kunming mouse cognitive deficit model assessed as reduction in latency treated for 1 hr followed by training trial and subsequent addition of scopolamine at 30 mins post trial measured for 24 hrs interval; assay type: functional, organism-based
Mus musculus [20] = experiment: Antialzheimer activity in scopolamine induced po dosed Kunming mouse cognitive deficit model assessed as reduction in number of errors treated for 1 hr followed by training trial and subsequent addition of scopolamine at 30 mins post trial measured for 24 hrs interval; assay type: functional, organism-based
Mus musculus [21] = experiment: Antialzheimer activity in scopolamine induced Kunming mouse cognitive deficit model assessed as latency time at 20.6 mg/kg, po treated for 1 hr followed by training trial and subsequent addition of scopolamine at 30 mins post trial measured for 24 hrs interval; assay type: functional
Mus musculus [22] = experiment: Antialzheimer activity in scopolamine induced Kunming mouse cognitive deficit model assessed as latency time at 10.3 mg/kg, po treated for 1 hr followed by training trial and subsequent addition of scopolamine at 30 mins post trial measured for 24 hrs interval; assay type: functional
Mus musculus [23] = experiment: Antialzheimer activity in scopolamine induced Kunming mouse cognitive deficit model assessed as latency time at 5.2 mg/kg, po treated for 1 hr followed by training trial and subsequent addition of scopolamine at 30 mins post trial measured for 24 hrs interval; assay type: functional
Acetylcholinesterase [24] = biological target: T1, Acetylcholinesterase; experiment: Mixed type inhibition of human erythrocyte AChE at 12.5 to 50 nM using acetylthiocholine iodide as substrate preincubated for 6 mins followed by substrate addition measured up to 180 secs by Lineweaver-Burk plot analysis
[25] = Metal chelating activity assessed as compound-Cu2+ complex formation at 25 uM by UV-Vis spectrophotometry
[26] = Metal chelating activity assessed as compound-Fe2+ complex formation at 25 uM by UV-Vis spectrophotometry
[27] = Metal chelating activity assessed as compound-Zn2+ complex formation at 25 uM by UV-Vis spectrophotometry
in vitro = details: PAMPA
Description: Effective permeability at 25 ug/ml after 16 hrs by PAMPA

Compound: Cc1cc(=O)oc2cc(OCCSC(=S)N(C)C)ccc12
- IC50 (Acetylcholinesterase [1]): 10600 nM
- inhibition at 0.05 h, 10 µM [2]: < 5%

Compound: Cc1cc(=O)oc2cc(OCCSC(=S)N3CCOCC3)ccc12
- inhibition (Acetylcholinesterase [3]): 11%
- inhibition at 0.05 h, 10 µM [2]: < 5%

Compound: Cc1cc(=O)oc2cc(OCCCCCCCCSC(=S)N3CCCCC3)ccc12
- inhibition (Acetylcholinesterase [3]): < 5%
- inhibition at 0.05 h, 10 µM [2]: < 5%

Compound: Cc1cc(=O)oc2cc(OCCCSC(=S)N3CCCCC3)ccc12
- IC50 (Acetylcholinesterase [1]): 290 nM
- inhibition at 0.05 h, 10 µM [2]: 31.2%

Compound: Cc1cc(=O)oc2cc(OCCSC(=S)N3CCN(C4CC4)CC3)ccc12
- inhibition (Acetylcholinesterase [3]): 18.7%
- inhibition at 0.05 h, 10 µM [2]: < 5%

Compound: Cc1cc(=O)oc2cc(OCCCCSC(=S)N3CCCCC3)ccc12
- IC50 (Acetylcholinesterase [1]): 27 nM
- inhibition at 0.05 h, 10 µM [2]: 15.3%
- Ratio IC50 (Acetylcholinesterase [4]): 1.5
- Ki (Acetylcholinesterase [5]): 37.1 nM
- Activity [6]: Active
- Ka [7]: 1.69 ×10³ /M
- viability at 24 h, 12.5 µM [8]: 99.2%
- viability at 24 h, 25 µM [9]: 101%
- viability at 24 h, 50 µM [10]: 90.1%
- viability at 24 h, 100 µM [11]: 80.3%
- Activity (Mus musculus [12]): Non-Toxic
- Activity (Mus musculus [13]): Non-Toxic
- Activity (Mus musculus [14]): Non-Toxic
- Activity (Mus musculus [15]): Non-Toxic
- Activity (Mus musculus [16]): Non-Toxic
- Activity (Mus musculus [17]): Non-Toxic
- Activity (Mus musculus [18]): Non-Toxic
- Activity (Mus musculus [19]): Dose-dependent effect
- Activity (Mus musculus [20]): Dose-dependent effect
- Time (Mus musculus [21]): 192 s
- Time (Mus musculus [22]): 182 s
- Time (Mus musculus [23]): 151 s
- inhibition (Acetylcholinesterase [24]): Active
- Activity [25]: inactive
- Activity [26]: inactive
- Activity [27]: inactive
- Papp at 16 h, 25 ug/ml (in vitro): 9.21 ×10⁻⁶ cm/s

Compound: Cc1cc(=O)oc2cc(OCCCCCCSC(=S)N3CCCCC3)ccc12
- IC50 (Acetylcholinesterase [1]): 610 nM
- inhibition at 0.05 h, 10 µM [2]: 6.21%

Compound: Cc1cc(=O)oc2cc(OCCSC(=S)N3CCCC3)ccc12
- IC50 (Acetylcholinesterase [1]): 890 nM
- inhibition at 0.05 h, 10 µM [2]: < 5%

Compound: Cc1cc(=O)oc2cc(OCCSC(=S)N3CCN(C)CC3)ccc12
- inhibition (Acetylcholinesterase [3]): 36.8%
- inhibition at 0.05 h, 10 µM [2]: < 5%

Compound: Cc1cc(=O)oc2cc(OCCSC(=S)N3CCC(O)CC3)ccc12
- inhibition (Acetylcholinesterase [3]): < 5%
- inhibition at 0.05 h, 10 µM [2]: < 5%

Compound: Cc1cc(=O)oc2cc(OCCSC(=S)N(CCO)CCO)ccc12
- inhibition (Acetylcholinesterase [3]): 34.5%
- inhibition at 0.05 h, 10 µM [2]: < 5%

Compound: Cc1cc(=O)oc2cc(OCCSC(=S)N3CCCCC3)ccc12
- IC50 (Acetylcholinesterase [1]): 470 nM
- inhibition at 0.05 h, 10 µM [2]: 37.2%

Compound: CCN(CC)C(=S)SCCOc1ccc2c(C)cc(=O)oc2c1
- IC50 (Acetylcholinesterase [1]): 1940 nM
- inhibition at 0.05 h, 10 µM [2]: 10.9%

Compound: Cc1cc(=O)oc2cc(OCCSC(=S)N3CCN(c4ncccn4)CC3)ccc12
- inhibition (Acetylcholinesterase [3]): 12.3%
- inhibition at 0.05 h, 10 µM [2]: < 5%

Compound: Cc1cc(=O)oc2cc(OCCSC(=S)N3CCC(N4CCCCC4)CC3)ccc12
- IC50 (Acetylcholinesterase [1]): 1160 nM
- inhibition at 0.05 h, 10 µM [2]: 24.3%

Compound: Cc1cc(=O)oc2cc(OCCSC(=S)N3CCN(C(C)C)CC3)ccc12
- IC50 (Acetylcholinesterase [1]): 1990 nM
- inhibition at 0.05 h, 10 µM [2]: 28.1%

Compound: Cc1cc(=O)oc2cc(OCCCCCSC(=S)N3CCCCC3)ccc12
- IC50 (Acetylcholinesterase [1]): 210 nM
- inhibition at 0.05 h, 10 µM [2]: 10.1%
